“Also recorded” adds a separate entry of the source. Primed or numbered codes have the meaning given here. Where no end group is shown, it is not given here. The star is where a group is joined. 5FAM = O=C1OC2(c3ccc(O)cc3Oc3cc(O)ccc32)c2ccc(C(=O)*)cc21; 5FAM′ = not defined here
Assays:
[1] = system: MCT induced hypertensive rat lung; test: Peptide targeting study in monocrotaline (MCT)-induced pulmonary arterial hypertension, immunohistochemistry; type: in vivo; conditions: peptide 3.3 mg/kg via tail vein, 2 hours after injection, FIG. 4
Method: A rat model of monocrotaline (MCT)-induced pulmonary arterial hypertension was used for this study. Briefly, male Sprague-Dawley rats (150-200 g, Harlan Laboratories, IN) were administered with a single subcutaneous injection of monocrotaline at 60 mg/kg (Sigma-Aldrich, MO), while control rats were administered 0.9% saline (FIG. 1). Rats were randomly selected and studied for peptide distribution studies on 1, 3, 7, 14 or 21 days after the treatment of monocrotaline.
(§1) The following peptides were labeled with 5-carboxyfluorescein (5FAM) and used for the lung targeting studies: CAR, 5FAM-CARSKNKDC; VCAM1, CVHSPNKKCGGSK-5FAM; Control, 5FAM-CGGGGGGGC. All peptides were synthesized by Anaspec (Anaspec Inc., CA). Peptides were resolved in PBS at the concentrations of 0.5 mg/mL.
MCT-treated or untreated rats were injected with peptide solution at a dose of 3.3 mg/kg body weight via the tail vein. […]
To determine the localization of the peptides, paraffin-embedded tissue sections were immunostained with either hematoxylin and eosin (FIGS. 2-3) or rabbit anti-fluoroscein isothiocyanate (FITC) antibody (Invitrogen, CA) followed by horseradish peroxidase-labeled anti-rabbit IgG secondary antibody (FIG. 4). […] To quantify the targeting efficiency of the peptides to the lung, the immunostained sections were scanned by Aperio Scanscope XT and analyzed using ImageScope software (Aperio Technologies, CA).

[2] = system: severe occlusive PAH rat model; test: Blood pressure tracing, fasudil with CARK; type: in vivo
Method: (§2) Severe occlusive PAH rat model was used. Animals were injected with SU5416 (20 mg/kg; SUGEN Inc), followed by 3 weeks hypoxia, then followed by 2-10 weeks normoxia.
The peptide administered was a 7 amino acid variant to the CAR peptide used in previous examples. This variant (CARK) consisted of the following sequence: CARSKNK (SEQ ID NO: 2). In these experiments, CARK was administered at a dose of 3 mg/kg and fasudil administered at 1 mg/kg.
To measure the acute effects of fasudil with CARK administration on the right and left ventricular systolic pressure (or systolic aortic pressure), blood pressure measurements were performed on catheterized SU5w/hypoxia/normoxia-exposed rats with PAH.

[3] = system: cell surface heparan sulfate and heparin; conditions: US 20090036349; Jarvinen and Ruoslahti 2007; cited from earlier work
[4] = system: severe occlusive PAH rat model; test: Blood pressure tracing, imatinib with CAR; type: in vivo; conditions: CAR 3 mg/kg + imatinib 10 mg/kg, FIG. 25
Method: as §2
The peptide administered was CAR, CARSKNKDC (SEQ ID NO: 1). In this experiment, CAR was administered at a dose of 3 mg/kg and imatinib administered at 10 mg/kg.
To measure the acute effects of imatinib with CAR administration on the right and left ventricular systolic pressure, blood pressure measurements were performed on catheterized SU5w/hypoxia/normoxia-exposed rats with PAH.

[5] = system: mouse lungs after bleomycin injection; test: Peptide targeting study in bleomycin-induced acute lung injury and pulmonary fibrosis model, immunohistochemistry; type: in vivo; conditions: for Distribution of staining in mouse lungs, acute lung injury model / Distribution of staining in mouse lungs, pulmonary fibrosis model: peptide 3.3 mg/kg via tail vein, 2 hours; for Distribution of staining in mouse lungs, pulmonary fibrosis model: 14 days after bleomycin injection, FIGS. 15-17
Method: A mouse model of bleomycin induced acute lung injury and pulmonary fibrosis was used for this study. Briefly, 6 WT C57Bl/6 male mice, 8-12 weeks were weighed and anesthetized, and given bleomycin (BL) intratracheally at 4 U/kg. At 3 days (acute lung injury model) and 14 days (pulmonary fibrosis model) after BL injection, peptides were injected via the tail vein.
as §1
BL-treated mice were injected with peptide solution at a dose of 3.3 mg/kg body weight via the tail vein. At two hours after the injection, mice were perfused with PBS containing 1% bovine serum albumin under the deep anesthesia with isofluorane at a rate of 3.0% and euthanized. Tissues were fixed by systemic perfusion with 10% buffered formalin via right ventricle. The lung was inflated by injection of 10% formalin through the trachea. Various organs were excised from the rat and fixed for additional twenty four hours and processed for immunohistochemistry.
To determine the localization of the peptides, paraffin-embedded tissue sections were immunostained with rabbit anti-fluoroscein isothiocyanate (FITC) antibody (Invitrogen, CA) followed by horseradish peroxidase-labeled anti-rabbit IgG secondary antibody. The peptide localization was then visualized by diaminobenzidine (DAB). An automated staining system, Discovery XT (Ventana, Ariz.) was used. To quantify the targeting efficiency of the peptides to the lung, the immunostained sections were scanned by Aperio Scanscope XT and analyzed using ImageScope software (Aperio Technologies, CA) (FIGS. 14-17).

[6] = 3 days after bleomycin injection, FIG. 14

## 5FAM-CARSKNKDC (cysteine pairing not given here) [CAR-FITC, CAR peptide labeled with 5-carboxyfluorescein, detected with anti-FITC antibody]
[1]
  CAR-FITC staining of alveolar macrophages: alveolar macrophages take up the stain

## CARSKNK [CARK]
[2]; CARK 3 mg/kg + fasudil 1 mg/kg, compared to fasudil alone, FIG. 22
  Effect of CARK co-administration with fasudil on systolic aortic pressure (SAP): only a minor reduction in SAP
[2]; CARK 3 mg/kg + fasudil 1 mg/kg, compared to fasudil alone, FIG. 23
  Effect of CARK co-administration with fasudil on LVSP: only a minor reduction
[2]; CARK 3 mg/kg + fasudil 1 mg/kg, compared to fasudil alone, FIGS. 22-23
  Effect of CARK co-administration on RVSP lowering by fasudil: enhanced the blood pressure lowering effect of fasudil on RVSP
[2]; fasudil 10 mg/kg 30 minutes after cessation of CARK infusion, FIG. 24
  Effect on RVSP and LVSP of fasudil administered after cessation of CARK infusion: sustained, pulmonary-specific effect

## CARSKNKDC
[3]
  Binding to cell surface heparan sulfate and heparin: binds to cell surface heparan sulfate and heparin
[4]
  Effect of CAR co-administration on RVSP lowering by imatinib: enhanced the blood pressure lowering effect of imatinib on RVSP
  Effect of CAR co-administration with imatinib on LVSP: only a minor reduction in LVSP
[5]; [6]
  Staining intensity of CAR compared with VCAM1, acute lung injury model: more intense
  Distribution of staining in mouse lungs, acute lung injury model: stain the interstitium and inflammatory cells
[5]
  Distribution of staining in mouse lungs, pulmonary fibrosis model: Interstitial and inflammatory staining is seen in areas of lung fibrosis; also recorded: areas of dense fibrosis and spared areas showing little staining

## CVHSPNKKCGGSK-5FAM (CVHSPNKKCGGSK-{5FAM′}; cysteine pairing not given here) [VCAM1, reference compound]
[5]; [6]
  Distribution of staining in mouse lungs, acute lung injury model: stain the interstitium and inflammatory cells
[5]
  Distribution of staining in mouse lungs, pulmonary fibrosis model: areas of mild fibrosis and spared areas showing little staining

Source: patent US10039838B2, “Car peptide for homing, diagnosis and targeted therapy for pulmonary and fibrotic disorders” (Vascular BioSciences, priority 2010, dated 2018)
